Drawing on patent publication US20120101100A1 (priority 2008, published 2012), this text covers inhibition for 27 molecules.

S. aureus GyrB ATPase, sequence (P0A0K8 whole entry): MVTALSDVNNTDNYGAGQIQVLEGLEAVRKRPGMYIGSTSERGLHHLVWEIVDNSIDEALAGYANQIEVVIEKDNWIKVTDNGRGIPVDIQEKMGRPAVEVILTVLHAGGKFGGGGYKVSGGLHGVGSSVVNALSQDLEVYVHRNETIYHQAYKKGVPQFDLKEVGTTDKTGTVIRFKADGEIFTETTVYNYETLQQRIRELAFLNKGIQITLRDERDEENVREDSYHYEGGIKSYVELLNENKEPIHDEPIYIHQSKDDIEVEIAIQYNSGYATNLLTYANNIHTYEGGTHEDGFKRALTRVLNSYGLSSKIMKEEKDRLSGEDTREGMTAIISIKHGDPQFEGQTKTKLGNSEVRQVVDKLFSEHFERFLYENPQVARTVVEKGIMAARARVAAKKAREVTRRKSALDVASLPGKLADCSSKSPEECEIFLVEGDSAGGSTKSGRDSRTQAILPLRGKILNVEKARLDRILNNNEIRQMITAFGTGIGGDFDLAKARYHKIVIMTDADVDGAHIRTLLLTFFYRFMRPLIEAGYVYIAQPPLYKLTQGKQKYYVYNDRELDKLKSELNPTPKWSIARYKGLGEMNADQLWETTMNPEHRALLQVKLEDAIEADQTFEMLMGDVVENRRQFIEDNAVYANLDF
S. aureus GyrB ATPase, sequence (P0AES4 whole entry, further chain): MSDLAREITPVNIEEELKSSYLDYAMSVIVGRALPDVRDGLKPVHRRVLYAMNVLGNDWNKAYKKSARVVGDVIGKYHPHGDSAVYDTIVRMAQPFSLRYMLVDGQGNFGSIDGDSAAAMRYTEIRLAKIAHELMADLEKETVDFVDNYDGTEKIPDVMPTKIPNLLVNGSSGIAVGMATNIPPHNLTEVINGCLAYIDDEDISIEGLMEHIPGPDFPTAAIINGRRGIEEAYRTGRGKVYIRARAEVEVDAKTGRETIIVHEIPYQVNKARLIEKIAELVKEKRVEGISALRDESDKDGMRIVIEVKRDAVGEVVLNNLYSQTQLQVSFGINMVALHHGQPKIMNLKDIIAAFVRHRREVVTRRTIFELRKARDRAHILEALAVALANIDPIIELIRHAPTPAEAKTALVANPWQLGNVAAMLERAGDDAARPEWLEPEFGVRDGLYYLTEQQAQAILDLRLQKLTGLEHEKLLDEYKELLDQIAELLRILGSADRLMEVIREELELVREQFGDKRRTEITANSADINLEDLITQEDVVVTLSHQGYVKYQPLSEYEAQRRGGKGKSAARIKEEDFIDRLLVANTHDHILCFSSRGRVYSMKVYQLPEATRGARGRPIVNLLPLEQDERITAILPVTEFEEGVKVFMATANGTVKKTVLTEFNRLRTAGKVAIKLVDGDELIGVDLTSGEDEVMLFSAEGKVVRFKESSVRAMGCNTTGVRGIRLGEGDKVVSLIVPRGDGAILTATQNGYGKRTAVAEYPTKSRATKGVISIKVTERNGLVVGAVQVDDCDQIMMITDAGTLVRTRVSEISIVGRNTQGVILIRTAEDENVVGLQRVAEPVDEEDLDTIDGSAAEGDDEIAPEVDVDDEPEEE

The test deals with S. aureus GyrB ATPase (Staphylococcus aureus, UniProt P0A0K8). Briefly: S. aureus (SAU) GyrB ATPase inhibition, malachite green phosphate detection (E. coli GyrA + S. aureus GyrB). In kind it is biochemical. The following applies: compound concentration of 1.0 μM unless otherwise noted; average value where assay was carried out more than once; read-out: S. aureus (SAU) GyrB ATPase % Inhibition. As to the method:
Compounds were tested for inhibition of GyrB ATPase activity using an ammonium molybdate/malachite green-based phosphate detection assay (Lanzetta, P. A., L. J. Alvarez, P. S. Reinach, and O. A. Candia, 1979, 100: 95-97). Assays were performed in multiwell plates in 100 μl reactions containing: 50 mM Hepes buffer pH 7.5, 75 mM ammonium acetate, 8.0 mM magnesium chloride, 1.0 mM ethylenediaminetetraacetic acid, 5% glycerol, 2 mM 1,4-Dithio-DL-threitol, 400 nM bovine serum albumin, 5 μg/ml sheared salmon sperm DNA, 1.25 nM E. coli GyrA, 1.25 nM S. aureus GyrB, 500 μM ATP, and compound in dimethylsulfoxide. Reactions were quenched with 150 μl of ammonium molybdate/malachite green detection reagent containing 1.2 mM malachite green hydrochloride, 8.5 mM ammonium molybdate tetrahydrate, and 1 M hydrochloric acid. Plates were read in an absorbance plate reader at 650 nm and percent inhibition values were calculated using dimethylsulfoxide (2%)-containing reactions as 0% inhibition and novobiocin-containing (2 μM) reactions as 100% inhibition controls. Compound potency was based on IC50 measurements determined from reactions performed in the presence of 10 different compound concentrations.
On to `CCNC(=O)Nc1cc(-c2nc(C(F)(F)F)c(C(=O)NCCN3CCOCC3)s2)c(-c2cncc(-c3n[nH]c(=O)o3)c2)cn1` [Example 61, 2-(6-(3-ethylureido)-5′-(5-oxo-4,5-dihydro-1,3,4-oxadiazol-2-yl)-3,3′-bipyridin-4-yl)-N-(2-morpholinoethyl)-4-(trifluoromethyl)thiazole-5-carboxamide], for which the inhibition at 1 µM turned out to be 95%.

For the molecule `CCNC(=O)Nc1cc(-c2nc(C(F)(F)F)c(C(=O)NCCN3CCOCC3)s2)c(-c2cncc(-c3nnc(C)o3)c2)cn1` [Example 62, 2-(6-(3-ethylureido)-5′-(5-methyl-1,3,4-oxadiazol-2-yl)-3,3′-bipyridin-4-yl)-N-(2-morpholinoethyl)-4-(trifluoromethyl)thiazole-5-carboxamide], the inhibition at 1 µM is 86%.

With `CCNC(=O)Nc1cc(-c2nc(C(F)(F)F)c(C(=O)NCCN3CCN(C)CC3)s2)c(-c2cncc(-c3n[nH]c(=O)o3)c2)cn1` [Example 63], the inhibition at 1 µM was 96%.

Turning to `CCNC(=O)Nc1cc(-c2nc(C(F)(F)F)c(C(=O)NCCN3CCN(C)CC3)s2)c(-c2cncc(-c3nnc(C)o3)c2)cn1` [Example 64, 2-(6-(3-ethylureido)-5′-(5-methyl-1,3,4-oxadiazol-2-yl)-3,3′-bipyridin-4-yl)-N-(2-(4-methylpiperazin-1-yl)ethyl)-4-(trifluoromethyl)thiazole-5-carboxamide], the inhibition at 1 µM was found to be 98%.

For `CCNC(=O)Nc1cc(-c2nc(C(F)(F)F)c(C(=O)NC3CC3)s2)c(-c2cncc(-c3n[nH]c(=O)o3)c2)cn1` [Example 65], the inhibition at 1 µM was 94%.

Turning to `CCNC(=O)Nc1cc(-c2nc(C(F)(F)F)c(C(=O)NC3CC3)s2)c(-c2cncc(-c3nnc(C)o3)c2)cn1` [Example 66, N-cyclopropyl-2-(6-(3-ethylureido)-5′-(5-methyl-1,3,4-oxadiazol-2-yl)-3,3′-bipyridin-4-yl)-4-(trifluoromethyl)thiazole-5-carboxamide], the inhibition at 1 µM came out at 93%.

In the case of `CCNC(=O)Nc1cc(-c2nc(C(F)(F)F)c(C(=O)NC3CCCC3)s2)c(-c2cncc(-c3n[nH]c(=O)o3)c2)cn1` [Example 67, N-cyclopentyl-2-(6-(3-ethylureido)-5′-(5-oxo-4,5-dihydro-1,3,4-oxadiazol-2-yl)-3,3′-bipyridin-4-yl)-4-(trifluoromethyl)thiazole-5-carboxamide], the inhibition at 1 µM was 93%.

Take `CCNC(=O)Nc1cc(-c2nc(C(F)(F)F)c(C(=O)NC3CCCC3)s2)c(-c2cncc(-c3nnc(C)o3)c2)cn1` [Example 68, N-cyclopentyl-2-(6-(3-ethylureido)-5′-(5-methyl-1,3,4-oxadiazol-2-yl)-3,3′-bipyridin-4-yl)-4-(trifluoromethyl)thiazole-5-carboxamide]: the inhibition at 1 µM is 96%.

In the case of `CCNC(=O)Nc1cc(-c2nc(C(F)(F)F)c(C(=O)NC3CCCCC3)s2)c(-c2cncc(-c3n[nH]c(=O)o3)c2)cn1` [Example 69, N-cyclohexyl-2-(6-(3-ethylureido)-5′-(5-oxo-4,5-dihydro-1,3,4-oxadiazol-2-yl)-3,3′-bipyridin-4-yl)-4-(trifluoromethyl)thiazole-5-carboxamide], the inhibition at 1 µM worked out at 91%.

`CCNC(=O)Nc1cc(-c2nc(C(F)(F)F)c(C(=O)NC3CCCCC3)s2)c(-c2cncc(-c3nnc(C)o3)c2)cn1` [Example 70, N-cyclohexyl-2-(6-(3-ethylureido)-5′-(5-methyl-1,3,4-oxadiazol-2-yl)-3,3′-bipyridin-4-yl)-4-(trifluoromethyl)thiazole-5-carboxamide]: the inhibition at 1 µM came out at 96%.

With `CCNC(=O)Nc1cc(-c2nc(C(F)(F)F)cs2)c(-c2cc(-c3n[nH]c(=O)o3)cnc2CC)cn1` [Example 71, 1-ethyl-3-(2′-ethyl-5′-(5-hydroxy-1,3,4-oxadiazol-2-yl)-4-(4-(trifluoromethyl)thiazol-2-yl)-3,3′-bipyridin-6-yl)urea], the inhibition at 1 µM came to 93%.

`CCNC(=O)Nc1cc(-c2nc(-c3ccccc3)cs2)c(-c2cc(-c3n[nH]c(=O)o3)cnc2CC)cn1` [Example 72, 1-ethyl-3-(2′-ethyl-5′-(5-hydroxy-1,3,4-oxadiazol-2-yl)-4-(4-phenylthiazol-2-yl)-3,3′-bipyridin-6-yl)urea]: the inhibition at 1 µM is 95%.

As for `CCNC(=O)Nc1cc(-c2nc(C(F)(F)F)cs2)c(-c2cc(-c3nnc(C)o3)cnc2CC)cn1` [Example 73, 1-ethyl-3-(2′-ethyl-5′-(5-methyl-1,3,4-oxadiazol-2-yl)-4-(4-(trifluoromethyl)thiazol-2-yl)-3,3′-bipyridin-6-yl)urea], the inhibition at 1 µM is 97%.

In the case of `CCNC(=O)Nc1cc(-c2nc(-c3ccccc3)cs2)c(-c2cc(-c3nnc(C)o3)cnc2CC)cn1` [Example 74], the inhibition at 1 µM amounted to 94%.

Regarding `CCNC(=O)Nc1cc(-c2nc(C(F)(F)F)cs2)c(-c2cc(OCC)nc(-c3n[nH]c(=O)o3)c2)cn1` [Example 75, 1-(2′-ethoxy-6′-(5-oxo-4,5-dihydro-1,3,4-oxadiazol-2-yl)-4-(4-(trifluoromethyl)thiazol-2-yl)-3,4′-bipyridin-6-yl)-3-ethylurea], the inhibition at 1 µM was determined as 99%.

In the case of `CCNC(=O)Nc1cc(-c2nc(C(F)(F)F)cs2)c(-c2cc(OCC)nc(-c3nnc(C)o3)c2)cn1` [Example 76, 1-(2′-ethoxy-6′-(5-methyl-1,3,4-oxadiazol-2-yl)-4-(4-(trifluoromethyl)thiazol-2-yl)-3,4′-bipyridin-6-yl)-3-ethylurea], the inhibition at 1 µM was found to be 100%.

For the molecule `CCNC(=O)Nc1cc(-c2nc(-c3ccccc3)cs2)c(-c2cc(OCC)nc(-c3n[nH]c(=O)o3)c2)cn1` [Example 77, 1-(2′-ethoxy-6′-(5-oxo-4,5-dihydro-1,3,4-oxadiazol-2-yl)-4-(4-phenylthiazol-2-yl)-3,4′-bipyridin-6-yl)-3-ethylurea], the inhibition at 1 µM was 97%.

On to `CCNC(=O)Nc1cc(-c2nc(-c3ccccc3)cs2)c(-c2cc(OCC)nc(-c3nnc(C)o3)c2)cn1` [Example 78, 1-(2′-ethoxy-6′-(5-methyl-1,3,4-oxadiazol-2-yl)-4-(4-phenylthiazol-2-yl)-3,4′-bipyridin-6-yl)-3-ethylurea], for which the inhibition at 1 µM was found to be 99%.

For `CCNC(=O)Nc1cc(-c2nc(C(F)(F)F)cs2)c(-c2cc(OC(C)C)nc(-c3n[nH]c(=O)o3)c2)cn1` [Example 79, 1-ethyl-3-(2′-isopropoxy-6′-(5-oxo-4,5-dihydro-1,3,4-oxadiazol-2-yl)-4-(4-(trifluoromethyl)thiazol-2-yl)-3,4′-bipyridin-6-yl)urea], the inhibition at 1 µM turned out to be 95%.

On to `CCNC(=O)Nc1cc(-c2nc(C(F)(F)F)cs2)c(-c2cc(OC(C)C)nc(-c3nnc(C)o3)c2)cn1` [Example 80, 1-ethyl-3-(2′-isopropoxy-6′-(5-methyl-1,3,4-oxadiazol-2-yl)-4-(4-(trifluoromethyl)thiazol-2-yl)-3,4′-bipyridin-6-yl)urea], for which the inhibition at 1 µM was 96%.

Regarding `CCNC(=O)Nc1cc(-c2nc(-c3ccccc3)cs2)c(-c2cc(OC(C)C)nc(-c3n[nH]c(=O)o3)c2)cn1` [Example 81, 1-ethyl-3-(2′-isopropoxy-6′-(5-oxo-4,5-dihydro-1,3,4-oxadiazol-2-yl)-4-(4-phenylthiazol-2-yl)-3,4′-bipyridin-6-yl)urea], the inhibition at 1 µM is 94%.

With `CCNC(=O)Nc1cc(-c2nc(-c3ccccc3)cs2)c(-c2cc(OC(C)C)nc(-c3nnc(C)o3)c2)cn1` [Example 82, 1-ethyl-3-(2′-isopropoxy-6′-(5-methyl-1,3,4-oxadiazol-2-yl)-4-(4-phenylthiazol-2-yl)-3,4′-bipyridin-6-yl)urea], the inhibition at 1 µM was 86%.

As to `CCNC(=O)Nc1cc(-c2nc(C(F)(F)F)cs2)c(-c2cc(OCC3CC3)nc(-c3n[nH]c(=O)o3)c2)cn1` [Example 83, 1-(2′-(cyclopropylmethoxy)-6′-(5-oxo-4,5-dihydro-1,3,4-oxadiazol-2-yl)-4-(4-(trifluoromethyl)thiazol-2-yl)-3,4′-bipyridin-6-yl)-3-ethylurea], the inhibition at 1 µM came out at 94%.

As to `CCNC(=O)Nc1cc(-c2nc(-c3ccccc3)cs2)c(-c2cc(OCC3CC3)nc(-c3n[nH]c(=O)o3)c2)cn1` [Example 85, 1-(2′-(cyclopropylmethoxy)-6′-(5-oxo-4,5-dihydro-1,3,4-oxadiazol-2-yl)-4-(4-phenylthiazol-2-yl)-3,4′-bipyridin-6-yl)-3-ethylurea], the inhibition at 1 µM came to 93%.

On to `CCNC(=O)Nc1cc(-c2nc(C(F)(F)F)cs2)c(-c2cc(-c3n[nH]c(=O)o3)nc(N3CCOCC3)c2)cn1` [Example 86, 1-ethyl-3-(2′-morpholino-6′-(5-oxo-4,5-dihydro-1,3,4-oxadiazol-2-yl)-4-(4-(trifluoromethyl)thiazol-2-yl)-3,4′-bipyridin-6-yl)urea], for which the inhibition at 1 µM came to 97%.

In the case of `CCNC(=O)Nc1cc(-c2nc(C(F)(F)F)cs2)c(-c2cc(-c3nnc(C)o3)nc(N3CCOCC3)c2)cn1` [Example 87, 1-ethyl-3-(2′-morpholino-6′-(5-methyl-1,3,4-oxadiazol-2-yl)-4-(4-(trifluoromethyl)thiazol-2-yl)-3,4′-bipyridin-6-yl)urea], the inhibition at 1 µM came to 99%.

Take `CCNC(=O)Nc1cc(-c2nc(-c3ccccc3)cs2)c(-c2cc(-c3n[nH]c(=O)o3)nc(N3CCOCC3)c2)cn1` [Example 88]: the inhibition at 1 µM came out at 94%.
